The values that follow come from BindingDB's records for doi:10.1016/s0960-894x(98)00444-2 (Wayne State University, 1999).

As usually defined, the Ki is a dissociation constant, usually derived from enzyme kinetics or from competition with a known ligand.

The target of this assay is Prothrombin (Homo sapiens, UniProt P00734). Kind of assay: ChEBML_216950. As to the method: Dissociation constant was evaluated by competitive inhibition of alpha-thrombin using the method of Dixon enzyme assay.

Each structure is given as a SMILES string.

For `C1=[N+]2c3ccccc3C=[N+]3c4ccccc4C=[N+]4c5ccccc5C[N](c5ccccc51)[Pd]234` (stereo unspecified) [Palladium analogue], affinity was put at a Ki of 170 µM.
